Here are results for three molecules from PubChem BioAssay AID2060609 (Molecular Pharmacology Branch, DTP, NCI, 2025).

Structures are written as SMILES. Where “and” joins values, the source holds several entries; their conditions need not be identical. Equal values may be shown once.

By viability, T/C is commonly meant the result in the treated group divided by that in the control group, in per cent. A word on the IC50: it is the concentration at which inhibition is half-maximal.

This experiment concerns 855422-203-R-J1-PDC complex spheroids, viability. Description: Anticancer human tumor 855422-203-R-J1-PDC patient-derived bladder carcinoma cell line growth inhibition [CLK]. The note with it: for viability, T/C: stronger effect = lower value. From the text: A high-throughput screen of multi-cell type tumor spheroids was designed to identify active combinations of […] and targeted small molecules. Complex spheroids include a stromal component modeled by human endothelial cells (HUVEC) and fibroblasts modeled by human mesenchymal stem cells (MSCs). The concentration ranges selected for each drug and investigational agent were based upon clinically achievable concentrations if the clinical Cmax of the agent was known.
Compounds. The drugs and investigational agents: cirtuvivint (SM08502; NSC835563), CC-671 (NSC850746), vemurafenib (NSC761431), tapotoclax (NSC804041), sotorasib (NSC818433), adagrasib (NSC831453), MRTX-1133 (NSC836407), BAY2416964 (NSC825713), copanlisib (NSC816437), inavolisib (NSC800729), abemaciclib (NSC768073), osimertinib (NSC779217), entinostat (NSC756642), eltanexor (KPT-8602, NSC794443), venetoclax (NSC766270), ceralasertib (NSC777638), bortezomib (NSC756655), olaparib (NSC753686), talazoparib (NSC767125), alisertib (NSC759677), peposertib (NSC802822), gemcitabine (NSC613327), 5-fluorouracil (NSC19893), SN-38 (NSC673596), oxaliplatin (NSC266046), paclitaxel (NSC125973), and doxorubicin (NSC123127), were obtained from the National Cancer Institute (NCI) Developmental Therapeutics Program Chemical Repository. The FDA-approved anticancer drug set is available from the Developmental Therapeutics Program at https://dtp.cancer.gov/organization/dscb/obtaining/available plates.htm. […] The stock solutions were prepared in dimethyl sulfoxide (DMSO, Sigma-Aldrich, St. Louis, MO, cat. D2650), except for the platinum complexes which were prepared in saline (Quality Biological, Gaithersburg, MD, cat. 114-055-101), at 800-fold the tested concentration and stored at -70 degrees C prior to their use. All drugs and investigational agents were tested over a range starting from a high concentration at or near the clinical Cmax and decreasing in half-log increments. If the clinical Cmax for an agent had not been determined, the highest concentration tested was 10 microM.
Cell Culture. All cells were maintained in an incubator at 37 degrees C and 5% CO2 with 95% humidity. The PDC lines were cultured according to standard operating procedures established by the NCI PDMR. Briefly, all PDCs were thawed and cultured in Matrigel-coated flasks prepared with a working solution of 1X Ham's F-12 nutrient mix, without supplementation (Invitrogen, Waltham, MA, cat. 11765054), 100 U/mL penicillin-streptomycin (Invitrogen, cat. 15140122), and 2.5% Matrigel (Corning Inc., Corning, NY, cat. 354248) for the first three passages. The 947758-054-R-J2-PDC line was cultured in 6B/Colon 1A media, which includes advanced DMEM/F-12 (Thermo Fisher Scientific, cat. 12634028), 10 mM HEPES (Thermo Fisher Scientific, cat. 15630080), 1X GlutaMAX supplement (Thermo Fisher Scientific, cat. 35050061), 0.1 mg/mL primocin (InvivoGen, cat. ant-pm-2), 10% defined fetal bovine serum, heat inactivated (HyClone Laboratories Inc., cat. SH30070.03HI), 1.25 mM N-Acetyl-L-cysteine (Sigma-Aldrich, cat. A9165), 10 mM nicotinamide (Sigma-Aldrich, cat. N0636), 1X B-27 supplement (Thermo Fisher Scientific, cat. 17504044), 1X N-2 supplement (Thermo Fisher Scientific, cat. 17502048), and 10 microM Y-27632 dihydrochloride (Tocris Bioscience, cat. 1254). The 876862-298-R-J1-PDC was cultured in 6E media, which includes all 6B/Colon 1A media components plus 50% L-WRN conditioned media (ATCC, cat. CRL-3276), 50 ng/mL recombinant human EGF recombinant protein (hEGF; Thermo Fisher Scientific, cat. PHG0311), 10 ng/mL recombinant human fibroblast growth factor 10 (hGFG-10; PeproTech, cat. 100-26), 1 ng/mL recombinant human fibroblast growth factor 2 (hFGF-2; PeproTech, cat. 100-18B), and 1 µM prostaglandin E2 (PGE2; Tocris, cat. 2296). The 227483-062-R1-J1-PDC line was cultured in Panc media, containing all 6E components except hFGF-2, with the addition of 500 nM SB-431542 (Selleckchem, cat. S1067) and 10 nM gastrin (Tocris, cat. 3006). […]
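Note: spheroids exposed to drugs for seven days before readout.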
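Throughout, for viability, T/C: 100% = DMSO vehicle control wells.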

With `Nc1ccccc1NC(=O)c1ccc(CNC(=O)OCc2cccnc2)cc1`, the viability, T/C is, setting by setting: (compound 0.0316 µM) 81.5% and 97.5%; (compound 0.1 µM) 72.8% and 73.2%; (compound 0.316 µM) 75.6% and 75%; (compound 1 µM) 60.6% and 54.4%; (compound 3.16 µM) 21.2% and 28.1%; (compound 10 µM) 2.46% and 1.54%. The IC50 (curve of compound) was 1.36 µM and 1.14 µM.

Regarding `C=C(F)C(=O)N1CCN(c2nc(OCC3CCCN3C)nc3c2CCN(c2cccc4cccc(Cl)c24)C3)CC1CC#N` (stereo unspecified), the viability, T/C is 94.2% and 121% (compound 0.0316 µM); 111% and 115% (compound 0.1 µM); 93.3% and 113% (compound 0.316 µM); 111% and 123% (compound 1 µM); 11.1% and 26% (compound 3.16 µM); 1.51% and 0.48% (compound 10 µM). Moreover, the 50% inhibitory concentration (IC50) (curve of compound) was 1.94 µM and 2.34 µM.

For `Nc1ccccc1NC(=O)c1ccc(CNC(=O)OCc2cccnc2)cc1` + CNC(=O)c1ccc(Nc2nc(OC3CCCC3)c3c(-c4ccc5nc(C)oc5c4)c[nH]c3n2)c(OC)c1, the IC50 runs as follows: (curve of first compound, second compound 0.0316 µM) 1.12 µM; (curve of first compound, second compound 0.1 µM) under 0.0316 µM; (curve of first compound, second compound 0.316 µM) under 0.0316 µM; (curve of first compound, second compound 1 µM) under 0.0316 µM; (curve of first compound, second compound 3.16 µM) under 0.0316 µM; (curve of first compound, second compound 10 µM) under 0.0316 µM. The viability, T/C runs as follows: (second compound 0.0316 µM, first compound 0.0316 µM) 77.8%; (second compound 0.0316 µM, first compound 0.1 µM) 81.3%; (second compound 0.0316 µM, first compound 0.316 µM) 79.9%; (second compound 0.0316 µM, first compound 1 µM) 49.4%; (second compound 0.0316 µM, first compound 3.16 µM) 22.4%; (second compound 0.0316 µM, first compound 10 µM) 1.4%. For the same molecule, the viability, T/C by setting is: (second compound 0.1 µM, first compound 0.0316 µM) 46.5%; (second compound 0.1 µM, first compound 0.1 µM) 43.9%; (second compound 0.1 µM, first compound 0.316 µM) 44.9%; (second compound 0.1 µM, first compound 1 µM) 27.7%; (second compound 0.1 µM, first compound 3.16 µM) 21.1%; (second compound 0.1 µM, first compound 10 µM) 1.14%. The viability, T/C reads like this: (second compound 0.316 µM, first compound 0.0316 µM) 20.8%; (second compound 0.316 µM, first compound 0.1 µM) 16.2%; (second compound 0.316 µM, first compound 0.316 µM) 16.9%; (second compound 0.316 µM, first compound 1 µM) 18.2%; (second compound 0.316 µM, first compound 3.16 µM) 15.3%; (second compound 0.316 µM, first compound 10 µM) 0.51%. The viability, T/C is, setting by setting: (second compound 1 µM, first compound 0.0316 µM) 18.5%; (second compound 1 µM, first compound 0.1 µM) 17.9%; (second compound 1 µM, first compound 0.316 µM) 14.9%; (second compound 1 µM, first compound 1 µM) 13.2%; (second compound 1 µM, first compound 3.16 µM) 10.4%; (second compound 1 µM, first compound 10 µM) 0.17%. The viability, T/C was 17.5% (second compound 3.16 µM, first compound 0.0316 µM); 18.6% (second compound 3.16 µM, first compound 0.1 µM); 12% (second compound 3.16 µM, first compound 0.316 µM); 15.3% (second compound 3.16 µM, first compound 1 µM); 7.63% (second compound 3.16 µM, first compound 3.16 µM); 0.29% (second compound 3.16 µM, first compound 10 µM). Further, the viability, T/C is 19.9% (second compound 10 µM, first compound 0.0316 µM); 13.6% (second compound 10 µM, first compound 0.1 µM); 16.6% (second compound 10 µM, first compound 0.316 µM); 12.1% (second compound 10 µM, first compound 1 µM); 8.45% (second compound 10 µM, first compound 3.16 µM); 0.69% (second compound 10 µM, first compound 10 µM).
